In ChEMBL document CHEMBL4402608 (J Med Chem, 2020):

Experiments:
[1] = target: 5HT3 receptor (5-hydroxytryptamine receptor 3A) (Homo sapiens, UniProt P46098); assay: Displacement of [3H]GR65630 from recombinant human 5HT3 receptor transiently expressed in HEKT cell membranes at 10 uM measured after 90 mins by microbeta scintillation counting method relative to control; settings: probe [3H]GR65630
Histamine H1 receptor = Histamine H1 receptor (Homo sapiens, UniProt P35367); assay: Displacement of [3H]-pyrilamine from human histamine H1 receptor expressed in stable HEK cell membranes at 10 uM after 90 mins by microbeta scintillation counting method relative to control; settings: probe [3H]-pyrilamine
[2] = target: Sodium-dependent noradrenaline transporter (Homo sapiens, UniProt P23975); assay: Displacement of [3H]-Nisoxetine from human NET receptor expressed in stable HEK cell membranes after 90 mins by microbeta scintillation counting method
mu opioid receptor (MOR) = mu opioid receptor (MOR) (Homo sapiens, UniProt P35372); assay: Displacement of [3H]-DAMGO from recombinant human MOR stably expressed in HEK cell membranes at 10 uM measured after 90 mins by microbeta scintillation counting method relative to control; settings: HEK cell membranes stably expressing recombinant human MOR, probe [3H]-DAMGO
[3] = target: Sodium-dependent dopamine transporter (Homo sapiens, UniProt Q01959); assay: Displacement of [3H]-Win35428 from human DAT expressed in stable HEK cell membranes after 90 mins by microbeta scintillation counting method
5HT5A receptor = 5HT5A receptor (Homo sapiens, UniProt P47898); assay: Displacement of [3H]-LSD from recombinant human 5HT5A receptor stably expressed in Flp-In CHO cell membranes at 10 uM measured after 90 mins by microbeta scintillation counting method relative to control; settings: probe [3H]-LSD
[4] = target: delta opioid receptor (DOR) (Homo sapiens, UniProt P41143); assay: Displacement of [3H]-DADLE from recombinant human DOR stably expressed in HEK cell membranes at 10 uM measured after 90 mins by microbeta scintillation counting method relative to control; settings: HEK cell membranes stably expressing recombinant human DOR, probe [3H]-DADLE
[5] = target: T1, Alpha-1D adrenergic receptor (Homo sapiens, UniProt P25100); assay: Displacement of [3H]-prazosin from recombinant human alpha1D adrenergic receptor at 10 uM measured after 90 mins by microbeta scintillation counting method relative to control; settings: probe [3H]-prazosin
T1 sequence (P25100 whole entry): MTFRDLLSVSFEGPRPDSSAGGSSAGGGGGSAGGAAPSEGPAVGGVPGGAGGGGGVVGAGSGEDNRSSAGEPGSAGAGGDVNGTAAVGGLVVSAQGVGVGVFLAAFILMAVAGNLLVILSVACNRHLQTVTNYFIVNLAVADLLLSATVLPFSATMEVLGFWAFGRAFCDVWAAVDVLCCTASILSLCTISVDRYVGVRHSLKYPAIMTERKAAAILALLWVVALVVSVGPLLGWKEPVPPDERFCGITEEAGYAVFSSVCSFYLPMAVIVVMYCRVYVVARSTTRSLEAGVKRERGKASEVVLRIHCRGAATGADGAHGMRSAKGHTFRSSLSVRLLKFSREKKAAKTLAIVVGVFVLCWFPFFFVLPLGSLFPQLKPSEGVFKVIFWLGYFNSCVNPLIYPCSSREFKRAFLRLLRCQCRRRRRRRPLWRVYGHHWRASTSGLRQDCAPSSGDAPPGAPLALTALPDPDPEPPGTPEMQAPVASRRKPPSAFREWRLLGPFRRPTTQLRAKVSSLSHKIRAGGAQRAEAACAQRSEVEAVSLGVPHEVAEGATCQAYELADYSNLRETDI

[6] = target: 5-hydroxytryptamine receptor 2C (Homo sapiens, UniProt P28335); assay: Displacement of [3H]-Mesulergine from recombinant human 5HT2C receptor expressed in HEK cell membranes measured after 90 mins by microbeta scintillation counting method
[7] = target: Muscarinic acetylcholine receptor M5 (Homo sapiens, UniProt P08912); assay: Displacement of [3H]-QNB/[3H]-NMS from human muscarinic M5 receptor expressed in stable CHO cell membranes after 90 mins by microbeta scintillation counting method
5HT2A receptor = 5HT2A receptor (Homo sapiens, UniProt P28223); assay: Displacement of [3H]-Ketanserin from 5HT2A receptor (unknown origin) at 10 uM measured after 90 mins by microbeta scintillation counting method relative to control; settings: probe [3H]-Ketanserin
[8] = target: 5-hydroxytryptamine receptor 7 (Homo sapiens, UniProt P34969); assay: Displacement of [3H]-LSD from recombinant human 5HT7A receptor stably expressed in HEK cell membranes measured after 90 mins by microbeta scintillation counting method
5HT1B receptor = 5HT1B receptor (Homo sapiens, UniProt P28222); assay: Displacement of [3H]5-CT from recombinant human 5HT1B receptor stably expressed in HEK cell membranes at 10 uM measured after 90 mins by microbeta scintillation counting method relative to control; settings: probe [3H]5-CT
Histamine H2 receptor = Histamine H2 receptor (Homo sapiens, UniProt P25021); assay: Displacement of [125I]-Iodo-aminopotentidine from human histamine H2 receptor expressed in stable HEK cell membranes at 10 uM after 90 mins by microbeta scintillation counting method relative to control; settings: probe [125I]-Iodo-aminopotentidine
dopamine D5 receptor = dopamine D5 receptor (Homo sapiens, UniProt P21918); assay: Displacement of [3H]-SCH23390 from recombinant human D5 receptor transiently expressed in HEKT cell membranes at 10 uM measured after 90 mins by microbeta scintillation counting method relative to control; settings: probe [3H]-SCH23390
[9] = target: 5-hydroxytryptamine receptor 1A (Homo sapiens, UniProt P08908); assay: Displacement of [3H]-Way100635 from recombinant human 5HT1A receptor stably expressed in CHO cell membranes measured after 90 mins by microbeta scintillation counting method
5HT1A receptor = 5HT1A receptor (Homo sapiens, UniProt P08908); assay: Displacement of [3H]-Way100635 from recombinant human 5HT1A receptor stably expressed in CHO cell membranes at 10 uM measured after 90 mins by microbeta scintillation counting method relative to control; settings: probe [3H]-Way100635
[10] = target: kappa opioid receptor (KOR) (Homo sapiens, UniProt P41145); assay: Displacement of [3H]-U69593 from KOR (unknown origin) at 10 uM measured after 90 mins by microbeta scintillation counting method relative to control; settings: probe [3H]-U69593
[11] = Displacement of [3H]-PK11195 from rat brain GABA PBR measured after 90 mins by microbeta scintillation counting method
muscarinic M2 receptor = muscarinic M2 receptor (Homo sapiens, UniProt P08172); assay: Displacement of [3H]-QNB/[3H]-NMS from human muscarinic M2 receptor expressed in stable CHO cell membranes at 10 uM after 90 mins by microbeta scintillation counting method relative to control; settings: probe [3H]-QNB/[3H]-NMS
Histamine H4 receptor = Histamine H4 receptor (Homo sapiens, UniProt Q9H3N8); assay: Displacement of [3H]-Histamine from recombinant human histamine H4 receptor expressed in HEKT cell membranes at 10 uM measured after 90 mins by microbeta scintillation counting method relative to control; settings: probe [3H]-Histamine
D(1B) dopamine receptor = D(1B) dopamine receptor (Homo sapiens, UniProt P21918)

SMILES | inhibition at […], 10 µM [1] [%] | inhibition at […], 10 µM (Histamine H1 receptor) [%] | inhibition at […], 10 µM (mu opioid receptor (MOR)) [%] | inhibition at […], 10 µM (5HT5A receptor) [%] | inhibition at […], 10 µM [4] [%] | inhibition at […], 10 µM [5] [%] | inhibition at […], 10 µM (5HT2A receptor) [%] | Ki [8] [nM] | inhibition at […], 10 µM (5HT1B receptor) [%] | inhibition at […], 10 µM (Histamine H2 receptor) [%] | inhibition at […], 10 µM (dopamine D5 receptor) [%] | Ki [9] [nM] | inhibition at […], 10 µM (5HT1A receptor) [%] | inhibition at […], 10 µM [10] [%] | inhibition at […], 10 µM (muscarinic M2 receptor) [%] | inhibition at […], 10 µM (Histamine H4 receptor) [%] | other results
CCCN(CC[C@]1(O)C[C@H](NC(=O)c2ccc3ccccc3c2)C1)[C@H]1CCc2nc(N)sc2C1 | < 50 | > 50 | > 50 | < 50 | < 50 | > 50 | > 50 | 770 | < 50 | > 50 | < 50 | 708 | > 50 | > 50 | < 50 | < 50 | Ki ([2]; read-out: Ki): 436 nM; Ki ([3]; read-out: Ki): 205 nM; Ki ([6]; read-out: Ki): 762 nM; Ki ([7]; read-out: Ki): 2300 nM; Ki [11]: Not Active
CCCN[C@H]1CCc2nc(N)sc2C1 [PRAMIPEXOLE] | > 50 | < 50 | < 50 | > 50 | > 50 | < 50 | < 50 | 1190 | > 50 | > 50 | > 50 | 6510 | > 50 | < 50 | > 50 | > 50 | Ki [2]: Not Active; Ki [3]: Not Active; Ki [6]: Not Active; Ki ([7]; cho): Not Active; Ki (D(1B) dopamine receptor): > 10000 nM
